Results taken from patent US4012284A (Societa' Farmaceutici Italia, S.p.A., priority 1962, dated 1977).

Legend:
Acute toxicity, mouse = settings: in vivo
Excerpt: (§1) In the following Table the acute toxicity of Daunomycin as LD50 is reported.

Acute toxicity, rat = settings: in vivo
Excerpt: as §1

[1] = test system: Ehrlich ascitic carcinoma; experiment: Ehrlich ascitic carcinoma in mice (Table III); assay type: in vivo, mouse; settings: for Body weight increase / Average survival time: 5 days; for Average survival time: controls 16.4
Method: (§2) At least 20 animals per lot were used.
(§3) Activity tests were carried out on mice, bearing Ehrlich ascitic carcinoma and on rats, which are grafted with hepatoma AH 130 and Oberling-Guerin-Guerin myeloma.
(§4) Mice are grafted intraporitoneally with a suspension of tumor cells and treated with solutions of different concentrations of the antibiotic for five consecutive days starting from the day following the tumor implantation.

[2] = test system: Ehrlich ascitic carcinoma; experiment: Ehrlich ascitic carcinoma, second experiment, intravenous (Table IV); assay type: in vivo, mouse; settings: 1.75 mg/kg/day intravenously, 4 days
Method: as §2, §3, §4
The result has been confirmed by a successive experiment in which the antibiotic has been administered at the dose of 1.75 mg/kg intravenously for 4 days (Table IV).

Hepatoma AH 130 = experiment: Ascitic hepatoma AH 130 in Wistar rats; assay type: in vivo, Wistar rat; settings: 2 and 1 mg/kg/day intraperitoneally, 5 days, after 50 days of the experiment
Method: as §2, §3
Wistar rats, grafted with accitic hepatoma have been treated intraperitoneously for 5 consecutive days with antibiotic doses of 2 and 1 mg/kg/day.

[3] = test system: Ascitic myeloma (Oberling-Guerin-Guerin myeloma); experiment: Ascitic myeloma (Oberling-Guerin-Guerin) in Wistar rats (Table V); assay type: in vivo, rat; settings: for Average survival time: controls 10.7
Method: as §2, §3
This experiment was carried out on Wister rats, which have been grafted with a suspension of tumor cells and then have been treated intraperitoneously with a solution of the antibiotic according to the following scheme: one group three times on alternate days with a dose equal to 2 mg/kg/day; another group for 5 consecutive days with a dose of 1 mg/kg/day.

Ehrlich adenocarcinoma [4] = experiment: Ehrlich adenocarcinoma (solid) in mice (Table VI); assay type: in vivo, mouse; settings: for Body weight change, not [net]: controls +2.27; for Body weight change, gross: controls +4.85; for % Inhibition (tumor growth) / Average tumor weight: eighth day; for Average tumor weight: controls 2.583
Excerpt: as §2
(§5) The checking of the activity on solid tumors has been carried out with Ehrlich adenocarcinoma and sarcoma 180 in the mouse and with Walker carcinosarcoma and the Oberling-Guerin-Guerin myeloma in the rat.
Mice grafted with a fragment of tumor subcutaneously for 6 days starting from the day after the transplantation have been treated with a solution of the antibiotic. At the eighth day of experiment all the animals were killed and the tumor was removed and weighed.

Sarcoma 180 = Sarcoma 180 (solid) in mice (Table VII); assay type: in vivo, mouse; settings: 2 mg/kg/day intraperitoneally, 7 days
Method: as §2, §5
Mice grafted with a fragment of neoplastic tissue have been treated intraperitoneally for seven consecutive days, starting from the day following the tumor implantation. The antibiotic was administered in solution at a dose of 2 mg/kg/day. At the tenth day of experiment, all the mice were killed and the tumors and spleens were removed.

Walker carcinosarcoma = Walker carcinosarcoma in rats, second experiment (Table IX); assay type: in vivo, rat; settings: 3 mg/kg/day intravenously
Method: as §2, §5
A second experiment with rats, bearing the same tumor, has been carried out to investigate the effect of the antibiotic on the animals' survival besides the antitumor activity. In this case the rats were treated intravenously 8 times within 12 days at the dose of 3 mg/kg/day.

[5] = test system: Oberling-Guerin-Guerin myeloma; experiment: Oberling-Guerin-Guerin myeloma (solid) in rats, successive experiment (Table XI); assay type: in vivo, rat
Excerpt: as §2
The checking of the activity on solid tumors has been carried out with Ehrlich adenocarcinoma and sarcoma 180 in the mouse and with Walker carcinosarcoma and the Oberling-Guerin-Guerin myeloma in the rat. […]

Solubility = assay type: physicochemical
[6] = test system: tumors, ascitic and solid; experiment: Antitumor activity on standard experimental animals (summary statements); assay type: in vivo, mouse and rat
Excerpt: as §2

several microorganisms = experiment: Bacteriostatic activity / antimicrobial spectrum (summary statements); assay type: cell-based
Ehrlich adenocarcinoma [7] = experiment: Ehrlich adenocarcinoma (solid) in mice (Table VI); assay type: in vivo, mouse; settings: controls 0/10
[8] = test system: Oberling-Guerin-Guerin myeloma; experiment: Oberling-Guerin-Guerin myeloma (solid) in Long-Evans rats (Table X); settings: 10 days; for % Inhibition (tumor growth) / Average tumor weight: 13th day; for Average tumor weight: controls 17.23; for Mortality: controls 3/12; for Body weight change, not [net]: controls +28.-; for Body weight change, gross: controls +45.2
[9] = 2.5 mg/kg/day intravenously, 7 times within 14 days

## COc1cccc2c1C(=O)c1c(O)c3c(c(O)c1C2=O)C[C@@](O)(C(C)=O)C[C@@H]3O[C@H]1C[C@H](N)[C@H](O)[C@H](C)O1 [F.I. 1762]
Acute toxicity, mouse; intravenous
  LD50: 20 mg/kg
Acute toxicity, mouse; ip, intraperitoneal
  LD50: 5 mg/kg
Acute toxicity, rat; intravenous
  LD50: 13 to 15 mg/kg
Acute toxicity, rat; ip, intraperitoneal
  LD50: 8 mg/kg
[1]; 0.75 mg/kg/day, 7 days after implantation, controls +9.6
  Body weight increase: +2.9 grams
[1]; 0.75 mg/kg/day, 14 days after implantation, controls +21.4
  Body weight increase: +5.3 grams
[1]; 1.25 mg/kg/day, 7 days after implantation, controls +9.6
  Body weight increase: +1.5 grams
[1]; 1.25 mg/kg/day, 14 days after implantation, controls +21.4
  Body weight increase: +3.1 grams
[1]; 1.25 mg/kg/day, 21 days after implantation
  Body weight increase: +4.4 grams
[1]; 1.25 mg/kg/day
  Average survival time: 32.0 days
[1]; 1.75 mg/kg/day, 7 days after implantation, controls +9.6
  Body weight increase: +1.3 grams
[1]; 1.75 mg/kg/day, 14 days after implantation, controls +21.4
  Body weight increase: +2.4 grams
[1]; 1.75 mg/kg/day, 21 days after implantation
  Body weight increase: +4.7 grams
[1]; 1.75 mg/kg/day
  Average survival time: 36.4 days
[1]; 1.75 and 1.25 mg/kg/day
  average survival rate of the treated animals: increased considerably
  effect on the ascitic tumor growth: remarkable inhibitory effect on the ascitic tumor growth
[2]; 7 days after implantation, controls +6.3
  Body weight increase: +0.1 grams
[2]; 12 days after implantation, controls +14.2
  Body weight increase: +2.2 grams
[2]; controls 12.4
  Average survival time: 35.1 days
Hepatoma AH 130
  trace of tumor: In none of them was any trace of tumor noticed
Hepatoma AH 130; controls average survival 11.8 days
  survival of treated rats: all the treated rats were still alive after 50 days of the experiment
[3]; 1 mg/kg/day intraperitoneally, 5 consecutive days
  Average survival time: 16.7 days
[3]; 2 mg/kg/day intraperitoneally, three times on alternate days
  Average survival time: 17.7 days
[3]; 2 mg/kg/day x 3 or 1 mg/kg/day x 5, intraperitoneally
  diffusion of the tumor: a delay in the diffusion of the tumor has been observed
Ehrlich adenocarcinoma [4]; 3 mg/kg/day
  Body weight change, not [net]: +1.59 grams
  Body weight change, gross: +3.84 grams
  % Inhibition (tumor growth): 12%
  Average tumor weight: 2.253 grams
Ehrlich adenocarcinoma [4]; 6 mg/kg/day
  Body weight change, not [net]: +1.07 grams
  Body weight change, gross: +2.59 grams
  % Inhibition (tumor growth): 41.1%
  Average tumor weight: 1.522 grams
Sarcoma 180
  spleen: marked shrinkage of the spleen
  tumor growth: marked inhibition of tumor growth
Sarcoma 180; controls 0/10
  Mortality: 0/10
Sarcoma 180; controls +2.83
  Body weight change, not [net]: -3.01 grams
Sarcoma 180; controls +5.05
  Body weight change, gross: -1.72 grams
Sarcoma 180; tenth day
  % Inhibition, spleen: 62.7%
  % Inhibition, tumor: 42.1%
Sarcoma 180; tenth day, controls 2.225
  Average weight, tumor: 1.289 grams
Sarcoma 180; tenth day, controls 251
  Average weight, spleen: 93.5 milligrams
Walker carcinosarcoma; 8 times within 12 days
  increase of average survival: 50.8%
Walker carcinosarcoma; 8 times within 12 days, 9th day
  Tumor growth inhibition: 71.0 % of the control
Walker carcinosarcoma; 8 times within 12 days, 29th day
  Tumor growth inhibition: 31.6 % of the control
Walker carcinosarcoma; 8 times within 12 days, controls 16.9
  Average survival time: 25.5 days
Walker carcinosarcoma; 20 days after the injections were stopped
  tumor growth inhibition (in words): still continues in a remarkable degree
Walker carcinosarcoma; during the treatment
  tumor growth inhibition (in words): considerable during the treatment
[5]; [9]
  % Inhibition, spleen: 54.1%
  % Inhibition, tumor: 69.5%
[5]; 2.5 mg/kg/day intravenously, 7 times within 14 days, controls 1.303
  Average weight, spleen: 0.598 grams
[5]; 2.5 mg/kg/day intravenously, 7 times within 14 days, controls 5/15
  Mortality: 5/15
[5]; 2.5 mg/kg/day intravenously, 7 times within 14 days, controls 13.486
  Average weight, tumor: 4.114 grams
[5]; 2.5 mg/kg/day intravenously, 7 times within 14 days, controls +40.22
  Body weight change, not [net]: +16.79 grams
[5]; 2.5 mg/kg/day intravenously, 7 times within 14 days, controls +53.7
  Body weight change, gross: +20.9 grams
[5]; Tables X and XI, 2 mg and 2.5 mg/kg/day intravenously
  tolerance of the antibiotic: good tolerance
[5]; Tables X and XI, 2 mg and 2.5 mg/kg/day intravenously produced the best results
  activity against this kind of tumor: active also against this kind of tumor
Solubility; in alcohols, ketones, halogenated hydrocarbons, aqueous solutions of organic and inorganic acids
  solubility: soluble
Solubility; in ethers and saturated hydrocarbons
  solubility: practically insoluble
Solubility; water
  solubility in water: slightly soluble
[6]; activity differs according to administration route and dose
  effect in solid tumors: Good inhibiting effect
[6]; immediate contact of the antibiotic and the neoplastic cells
  effect on the tumor growth in ascitic form: marked inhibitory effect on the tumor growth in ascitic form
[6]; intravenous, doses between 2 and 3 mg/kg/body weight day
  results by route and dose: best results
[6]; standard experimental animals
  usefulness as antitumoral: particularly useful as antitumoral
Several microorganisms
  antimicrobial spectrum: embraces grampositive, gram-negative bacteria, fungi and protozoa
  bacteriostatic activity against several microorganisms: remarkable bacteriostatic activity against several microorganisms
Ehrlich adenocarcinoma [7]; 3 mg/kg/day
  Mortality: 0/10
Ehrlich adenocarcinoma [7]; 6 mg/kg/day
  Mortality: 0/10
[8]; 2 mg/kg/day intravenously
  % Inhibition (tumor growth): 34.5%
  Average tumor weight: 11.30 grams
  Mortality: 0/12
  Body weight change, not [net]: +20 grams
  Body weight change, gross: +33.3 grams
[8]; 4 mg/kg/day intravenously
  % Inhibition (tumor growth): 82.8%
  Average tumor weight: 2.98 grams
  Mortality: 4/12
  Body weight change, not [net]: +0.8 grams
  Body weight change, gross: +3.8 grams
